The source of these data is ChEMBL document CHEMBL1201862, “PubChem BioAssay data set” (2004).

What all share (assay): growth of human tumour cells (NCI), 48 h
Assay [1] has as its system NCI-H23.
Assay [2] concerns NCI-H522.
In assay [3] the test system is COLO 205.
The test system of assay [4] is T47D.
For assay [5], the system named is NCI-H226.
In assay [6] the test system is HCT-15.
For assay [7], the system named is NCI-H460.
In assay [8] the test system is M14.
Assay [9] relates to LOX IMVI.
The test system of assay [10] is HCT-116.
Assay [11] concerns MCF7.
Assay [12] relates to NCI/ADR-RES.
Assay [13] has as its system CCRF-CEM.
Assay [14] concerns SK-MEL-28.
Assay [15] relates to EKVX.
Assay [16] relates to A549.
The test system of assay [17] is HOP-62.
Assay [18] relates to OVCAR-5.
In assay [19] the test system is M19-MEL.
Assay [20] has as its system DMS-114.

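Interpolation was linear, between the two tested concentrations surrounding the appropriate level; five concentrations were tested over 48 hours in 96-well plates. Abbreviation: GI50, concentration required for 50% inhibition of growth.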 Activity calls are given as the source filed them. Cut-off read from the data, not from the text of the source: active = GI50 up to about 1.1 µM and inactive = higher. Where a SMILES comes first, the peptide text is derived from it. [ ]: non-standard residue; d: D form. The star is where a group is joined. ξ: configuration not given here. X38 = O=C(OCc1ccccc1)[C@@H]1CCC[C@H]1N*; Fmoc = O=C(OCC1c2ccccc2-c2ccccc21)*; ξW = NC(Cc1c[nH]c2ccccc12)C(=O)O; ξF = NC(Cc1ccccc1)C(=O)O; Boc = CC(C)(C)OC(=O)*; ξK = NCCCCC(N)C(=O)O; ξT = CC(O)C(N)C(=O)O; tBu = CC(C)(C)*; CH2Cl = ClC*

Consider `Cc1cc(S(=O)(=O)Nc2nnc3cc(C(F)(F)F)cc(C)n23)c(S)cc1Cl`, for which the GI50 was > 100 µM (inactive) in assay [1]; > 100 µM (inactive) in assay [2]; > 100 µM (inactive) in [3]; > 100 µM (inactive) in assay [4]; > 54.6 µM (inactive) in assay [5]; greater than 91.6 µM in assay [6]. In addition, the GI50 was 19.5 µM (inactive) in assay [7]; 77.3 µM (inactive) in assay [8]; > 100 µM (inactive) in [9]; > 81.8 µM (inactive) in assay [10]; > 31.6 µM (inactive) in assay [11]; 45.5 µM (inactive) in [12]. Further, the GI50 in assay [13] was > 100 µM (inactive); in assay [14], > 100 µM (inactive); in assay [15], > 100 µM (inactive); in assay [16], 21.3 µM (inactive); in assay [17], 35.2 µM (inactive); in assay [18], > 84.9 µM (inactive).
As to `C/C(=N/NC(=O)C[n+]1ccccc1)C(CN(CC(C)C)CC(C)C)C(=O)Nc1ccc(C)cc1C` (configuration not stated), the GI50 in assay [19] is > 100 µM (inactive); in assay [1] it was > 100 µM (inactive); in [2], 40.8 µM (inactive); in assay [3], > 100 µM (inactive); in [7], > 100 µM (inactive); in [8], > 100 µM (inactive). In addition, the GI50 in [10] is > 100 µM (inactive); in [13] it was > 100 µM (inactive); in assay [14] it was > 100 µM (inactive); in assay [15], 45.1 µM (inactive); in assay [20], > 100 µM (inactive); in [16] it was > 100 µM (inactive). In addition, the GI50 in [17] is 90.8 µM (inactive); in assay [18], 65.5 µM (inactive).
Take `COC(=O)[C@]1(C)CCC[C@@]2(C)C1CCC1=C[C@@]3(C(C)C)CC[C@]12OO3` (some centres not stated): the GI50 in assay [19] was 25.1 µM (inactive); in [1] it was 34.1 µM (inactive); in assay [2] it was 17.8 µM (inactive); in assay [3], 22.5 µM (inactive); in assay [5], 26.3 µM (inactive); in assay [6] it was 31.9 µM. Further, the GI50 in assay [7] is 21.1 µM (inactive); in assay [8], 22 µM (inactive); in assay [9], 24.7 µM (inactive); in assay [10] it was 25.2 µM (inactive); in assay [13], 17.9 µM (inactive); in assay [15], 36.6 µM (inactive). Besides, the results for the GI50 in [16], in assay [17] and in assay [18] were 30.6 µM (inactive), 36.9 µM (inactive) and 22.4 µM (inactive), respectively.
In the case of `Nc1c(-c2ccc(Cl)c(Cl)c2)c2ccc([N+](=O)[O-])cc2c(=O)n1-c1nc2ccccc2s1`, the GI50 in [1] is 0.266 µM (active); in [2], 0.193 µM (active); in assay [3], 1.5 µM (inactive); in assay [4] it was 0.386 µM (active); in assay [5], 0.586 µM (active); in [6], 0.46 µM. The GI50 in assay [7] is 0.386 µM (active); in assay [8], 0.675 µM (active); in assay [9], 0.538 µM (active); in [10] it was 0.202 µM (active); in assay [11], 0.401 µM (active); in assay [12], 0.577 µM (active). The GI50 in [13] is 0.223 µM (active); in assay [14] it was 18.2 µM (inactive); in assay [15] it was 0.446 µM (active); in assay [16], 0.407 µM (active); in assay [17] it was 1.06 µM (active); in assay [18], 1.92 µM (inactive).
In the case of `Cc1n(Cc2ccccc2)c2c([n+]1C)C(=O)c1ccccc1C2=O`, the GI50 in [1] was 0.0434 µM (active); in assay [2] it was 0.027 µM (active); in assay [3], < 0.01 µM (active); in [4] it was 0.215 µM (active); in assay [5], 0.237 µM (active); in assay [6], 2.56 µM. For the same molecule, the GI50 in [7] is 0.108 µM (active); in assay [8] it was 0.0902 µM (active); in assay [9], 0.0473 µM (active); in assay [10] it was 0.0416 µM (active); in assay [11], 0.0158 µM (active); in assay [12] it was 21.1 µM (inactive). Besides, the GI50 in assay [13] was 0.456 µM (active); in [14], 0.0948 µM (active); in [15], 0.181 µM (active); in [16] it was 0.0478 µM (active); in assay [17], 0.0407 µM (active); in assay [18], 0.167 µM (active).
On to `COc1nc(C(=O)O)c(Cl)c(OC)c1Cl`, for which the GI50 in assay [19], in assay [1], in assay [2], in assay [3], in assay [7] and in assay [8] was > 100 µM (inactive) in each case. Also, the GI50 in [10], in [13], in [14], in [15], in assay [20] and in assay [16] was > 100 µM (inactive) throughout. Besides, the GI50 in [17] and in assay [18] was > 100 µM (inactive) throughout.
Take `NNC(=O)C(=O)NN=C(C(Cl)(Cl)CO)C(Cl)(Cl)CO`: the GI50 in [19] was 20.1 µM (inactive); in [1] it was 30.5 µM (inactive); in [2] it was 12.1 µM (inactive); in [3], > 100 µM (inactive); in assay [5], > 100 µM (inactive); in assay [6] it was 25.7 µM. The GI50 in [7] is 44.9 µM (inactive); in assay [8], 24.4 µM (inactive); in [9], 16.9 µM (inactive); in assay [10], 20.6 µM (inactive); in [13], 19.1 µM (inactive); in assay [14], 25.6 µM (inactive). Moreover, the GI50 in [15] is 40.7 µM (inactive); in [16], > 100 µM (inactive); in [17] it was 70.8 µM (inactive); in [18], 31.3 µM (inactive).
For the molecule `CC(=O)NC1=C(NCCO)C(=O)c2ccccc2C1=O`, the GI50 in [19] was 9.79 µM (inactive); in assay [1], > 50 µM (inactive); in assay [2], 24.5 µM (inactive); in assay [3], > 50 µM (inactive); in assay [5] it was > 50 µM (inactive); in [6], greater than 50 µM. The GI50 is > 50 µM (inactive) in assay [7]; > 50 µM (inactive) in [8]; > 50 µM (inactive) in [9]; 30.1 µM (inactive) in assay [10]; 42.6 µM (inactive) in assay [13]; > 50 µM (inactive) in assay [14]. The GI50 in assay [15], in assay [16] and in [17] was > 50 µM (inactive) in each case.
In the case of `CN1N=CSC12C(=O)N(c1ccccc1)C(=O)N2c1ccccc1` (configuration not stated), the GI50 in assay [19] is > 100 µM (inactive); in assay [1] it was > 100 µM (inactive); in [3], > 100 µM (inactive); in [6], greater than 100 µM; in [7], > 100 µM (inactive); in [8], > 100 µM (inactive). For the same molecule, the GI50 in assay [9], in assay [10], in [13], in [14], in assay [15] and in assay [20] was > 100 µM (inactive) in each case. In addition, the GI50 in [16], in assay [17] and in [18] was > 100 µM (inactive) in each case.
In the case of `CC(=O)NC(CC(C)C)C(=O)NC(Cc1ccccc1)C(=O)CCl` (stereo not drawn) (Ac-Leu-Phe-CH2Cl; configuration not given here), the GI50 was 13.1 µM (inactive) in assay [1]; 2.51 µM (inactive) in assay [2]; 5.43 µM (inactive) in assay [3]; 7.82 µM (inactive) in assay [4]; 21.6 µM (inactive) in [5]; 3.16 µM in assay [6]. Further, the GI50 was 20.8 µM (inactive) in [7]; 6.89 µM (inactive) in assay [8]; 2.67 µM (inactive) in [9]; 5.22 µM (inactive) in assay [10]; 5.04 µM (inactive) in assay [11]; 10.9 µM (inactive) in assay [12]. Moreover, the GI50 is 1.32 µM (inactive) in [13]; 10.6 µM (inactive) in [14]; 21.1 µM (inactive) in assay [15]; 20.7 µM (inactive) in assay [16]; 18.3 µM (inactive) in assay [17]; 17.5 µM (inactive) in [18].
`CC(OC(C)(C)C)C(NC(=O)C(CCCCNC(=O)OC(C)(C)C)NC(=O)C(Cc1c[nH]c2ccccc12)NC(=O)C(Cc1ccccc1)NC(=O)OCC1c2ccccc2-c2ccccc21)C(=O)NC(Cc1ccccc1)C(=O)N[C@@H]1CCC[C@H]1C(=O)OCc1ccccc1` (some centres not stated) (Fmoc-[ξF][ξW][ξK](Boc)[ξT](tBu)[ξF]-X38): the GI50 in assay [1] was > 100 µM (inactive); in [2], > 100 µM (inactive); in assay [3] it was > 100 µM (inactive); in assay [4], > 100 µM (inactive); in [5], > 100 µM (inactive); in assay [6], greater than 100 µM. Besides, the GI50 in assay [7] is > 100 µM (inactive); in assay [8] it was 38.9 µM (inactive); in [9], > 100 µM (inactive); in assay [10], > 100 µM (inactive); in assay [11], > 100 µM (inactive); in assay [12], > 100 µM (inactive). The GI50 in assay [13], in assay [14], in assay [15], in assay [16], in assay [17] and in [18] was > 100 µM (inactive) each time.
On to `CC(C)=CCC/C(C)=C/CO` [GERANIOL], for which the GI50 in assay [1] was > 100 µM (inactive); in [2] it was > 100 µM (inactive); in assay [3], > 100 µM (inactive); in assay [4], > 100 µM (inactive); in assay [5], > 100 µM (inactive); in [6], greater than 100 µM. Moreover, the GI50 in assay [7], in assay [8], in assay [9], in assay [10], in [11] and in assay [12] was > 100 µM (inactive) in each case. Moreover, the GI50 in assay [13], in assay [14], in assay [15], in assay [16], in assay [17] and in assay [18] was > 100 µM (inactive) each time.
